Results on 1 molecule are retold here after article PMC5484120 (Marine Drugs, 2017).

Several values for one entry are separate records, joined by “and”; a condition that tells them apart may be missing. Equal entries are not always repeated.

The test concerns the target T1, hα9α10 nAChR (Homo sapiens, UniProt Q9GZZ6+Q9UGM1).
T1 construct: expressed in transfected cells; host or cells: Xenopus laevis oocytes injected with cRNA
Description: cell-based. In kind it is cell-based.

T1 sequence (Q9UGM1 26-479 limits assumed): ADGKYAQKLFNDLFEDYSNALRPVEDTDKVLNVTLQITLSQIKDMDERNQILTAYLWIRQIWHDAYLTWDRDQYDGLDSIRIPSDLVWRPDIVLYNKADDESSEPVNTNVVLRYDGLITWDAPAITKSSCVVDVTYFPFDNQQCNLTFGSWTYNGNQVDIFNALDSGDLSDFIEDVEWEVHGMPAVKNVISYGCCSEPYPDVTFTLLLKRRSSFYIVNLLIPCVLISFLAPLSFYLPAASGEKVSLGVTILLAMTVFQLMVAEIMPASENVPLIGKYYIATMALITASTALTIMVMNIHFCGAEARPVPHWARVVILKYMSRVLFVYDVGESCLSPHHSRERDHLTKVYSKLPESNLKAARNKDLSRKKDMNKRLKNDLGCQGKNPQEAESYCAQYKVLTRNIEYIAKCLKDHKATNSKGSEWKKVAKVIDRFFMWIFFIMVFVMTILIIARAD
T1 sequence (Q9GZZ6 25-450): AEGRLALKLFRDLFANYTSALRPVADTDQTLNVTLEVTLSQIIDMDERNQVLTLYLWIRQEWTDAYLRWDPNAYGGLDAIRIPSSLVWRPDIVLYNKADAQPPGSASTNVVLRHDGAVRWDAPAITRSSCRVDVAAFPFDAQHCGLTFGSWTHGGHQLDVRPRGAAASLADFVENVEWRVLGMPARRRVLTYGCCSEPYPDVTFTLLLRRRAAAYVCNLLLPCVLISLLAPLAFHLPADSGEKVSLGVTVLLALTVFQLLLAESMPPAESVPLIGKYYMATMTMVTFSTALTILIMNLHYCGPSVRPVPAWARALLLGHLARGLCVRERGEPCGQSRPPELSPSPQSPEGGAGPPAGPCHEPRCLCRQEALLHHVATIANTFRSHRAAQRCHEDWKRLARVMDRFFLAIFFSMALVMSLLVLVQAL

On to `CSCC[C@H](NC(=O)[C@H](CC(C)C)NC(=O)[C@H](C)N)C(=O)N[C@@H](CO)C(=O)N[C@H](C(=O)NCC(=O)N[C@H](C(=O)N[C@@H](CC(N)=O)C(=O)N[C@@H](Cc1ccc(O)cc1)C(=O)N[C@@H](CCCNC(=N)N)C(=O)N[C@@H](CC(C)C)C(=O)N[C@@H](CC(C)C)C(=O)N[C@@H](CCCCN)C(=O)N[C@H](C(=O)N[C@@H](CSCC(N)=O)C(=O)N[C@@H](CCCNC(=N)N)C(=O)NCC(=O)N[C@@H](CO)C(=O)NCC(=O)N[C@@H](CCCNC(=N)N)C(=O)N[C@@H](Cc1ccc(O)cc1)C(=O)N[C@@H](CSCC(N)=O)C(=O)N[C@@H](CCCNC(=N)N)C(=O)N[C@@H](CO)C(=O)N1CCC[C@H]1C(=O)N[C@@H](Cc1ccc(O)cc1)C(=O)O)[C@@H](C)O)[C@@H](C)O)[C@@H](C)O` [GeXXVIIA-L-Nter], for which the IC50 worked out at 0.222 ± 0.014 µM; the “inhibition of ACh-evoked current, hα9α10 nAChR” value was > 90% and ~ 55%.

The term IC50 denotes the concentration at which inhibition is half-maximal. Lower therefore signals greater potency.
